Assay results from patent publication US11117912B1, “Platinum(II) complexes containing dicyclopentadiene and dithiocarbamate as anticancer agents” (King Fahd University of Petroleum and Minerals, priority 2020, dated 2021).

Key:
[1] = test system: A549 cells; experiment: xCelligence real-time cell analysis (RTCA) cytotoxicity assay, A549; type: cell-based, human
Experimental: (§1) The A549 and HeLa cell lines were cultured directly in DMEM (Dulbecco's Modified Eagle Medium), and then supplemented with 10% fetal bovine serum (FBS) and 1% streptomycin/penicillin. Then, the cancer cell samples were kept in a humidified incubator at 37° C. with 5% CO2.
(§2) The cytotoxicity of complexes was measured using xCelligence RTCA DP system (ACEA Biosciences, San Diego, Calif., USA). Briefly, the instrument was positioned in a humidified incubator at 37° C. with 5% CO2. The cytotoxicity experiments were conducted using modified 16-well plate (E-plate) with gold-microelectrodes attached at the base of the wells for the impedance-based attachment detection, cell distribution, and proliferation. A 50 μL of cell-free growth DMEM with 10% FBS was added to the wells. Then, the system was connected to measure the background impedance for each well for 30 min. A549 and HeLa cells were harvested using 0.05% Trypsin-EDTA (ethylenediaminetetraacetic acid), and then counted using LUNA automated cell counter (Logos Biosystem, Seoul, South Korea). 50 μL of the cell suspension was then added directly to each well containing 50 μL of cell-free growth DMEM with 10% FBS—Final to reach cell density of 5×10^3. The plates were left at room temperature for about 30 minutes and then inserted to xCelligence RTCA DP device. The xCelligence RTCA system software v.2.0 automatically monitored the impedance value of individual well. These values are expressed as CI (Cell Index) every 15 minutes. […] Then, cells were real time-monitored for 72 hours. All tested compounds were dissolved in DMSO, while cisplatin in normal saline solution. The final concentration of DMSO was less than 0.1% in each well. For negative control, 0.1% DMSO solution was used. Then IC50 values for all compounds at 24 hours and 72 hours were calculated using RTCA software v.2.0.
(§3) For all impedance profiles, the sigmoidal dose-response curves (FIGS. 2A-D) were obtained, and IC50 values were calculated (see Table 4). The calculations were based upon the CI, which is a relative and dimensionless value representing the impedance change divided by the background value, and thus reflects the overall number of cells and the quality of their attachment [D. Kho, C. MacDonald, R. Johnson, C. P. Unsworth, S. J. O'Carroll, E. du Mez, C. E. Angel, E. S. Graham. […] Biosensors 5 (2015) 199-222, incorporated herein by reference in its entirety]. The CI can change as a function of time, resulting in time-dependent and dose-dependent impedance profiles during an experiment [D. Kho, C. MacDonald, R. Johnson, C. P. Unsworth, S. J. O'Carroll, E. du Mez, C. E. Angel, E. S. Graham. […] Biosensors 5 (2015) 199-222, incorporated herein by reference in its entirety].

[2] = test system: HeLa cells; experiment: xCelligence real-time cell analysis (RTCA) cytotoxicity assay, HeLa; type: cell-based, human
Experimental: as §1, §2, §3

[3] = test system: A549 cells; experiment: Lactate dehydrogenase (LDH) release assay, A549; type: cell-based, human; conditions: 72 hours
Experimental: (§4) The release of lactate dehydrogenase (LDH) of A549 and HeLa cells in response to the cytotoxic effect of complexes 1 and 2 was measured using the LDH cytotoxic kit protocol (Dojindo, japan). The A549 and HeLa cells were plated into 96-well plate at 5×10^5 density for overnight. The cells were treated with complexes (1 and 2) at concentrations of IC25 (0.9 μM), IC50 (1.8 […]), and IC100 (3.6 μM) in triplicate for about 72 hours. In the day of reading, 10 μL of the Lysis Buffer was added to each well of the high control. The plate was incubated at 37° C. in CO2 incubator for 30 minutes. Then, 100 μL of the Working Solution was added to each well and incubated at room temperature for 30 minutes. Then, 50 μL of the Stop Solution was added to each well before measuring the absorbance at 490 nm using Mithras 943 micro-plate reader (Berthold Tech, Wildbad, Germany). The high control (DMSO+Cells suspension+lysis buffer) and low control (DMSO+cell suspension) were used to determine the percentage of fold changes in LDH according to the following equation (I). % in LDH changes=(Low control−Test)/(Low control−High control)×100 (I)
(§5) The release of lactate dehydrogenase (LDH) directly into the culture medium is an indication of loss of membrane integrity of a cell due to necrosis or apoptosis. Therefore, the LDH activity in the medium can be used as an indicator for cell membrane integrity, and thus for measuring cytotoxicity. […] The cytotoxic effect of complexes 1 and 2 was evaluated by the release of lactate dehydrogenase (LDH) on treated cells (A549 and HeLa). The cells were treated with the complexes at concentrations of 0.9 μM, 1.8 μM, and 3.6 μM, respectively, for 72 hours.

[4] = test system: HeLa cells; experiment: Lactate dehydrogenase (LDH) release assay, HeLa; type: cell-based, human; conditions: 72 hours
Experimental: as §4, §5

[5] = test system: HeLa cells; experiment: Wound healing assay (cell migration); type: cell-based, human; conditions: for cells migrated, % of the cell-free area (scratch closure): DMSO control approximately 73%
Experimental: The Culture-Insert 2 Well (ibidi Gmbh, Germany) was placed into micro-plate 24. 70 μL of 5×10^5 of HeLa cells was seeded into the culture-insert. The seeded cells were incubated for 24 hours under a specific condition (37° C., 5% CO2) to form monolayer cells. After 24 hours of the incubation, the culture-inserts were removed and the cells were gently washed with PBS to remove cell debris and detached cells. The cells were then treated with the cell culture mediums containing complex 1 at specific concentrations (1, 3, 10, 30 μM) and containing 0.1% DMSO as control. All assays were conducted in duplicates. In order to analyze the migration capacity, images of the cells were taken at 0 hours, 6 hours, and 12 hours using Optika microscope, Italy. The gap closure was determined using a web-based quantitative image solution (http://www.metavilabs.com/metavi2/index.html)
Cell migration is essential in the development and maintenance of multicellular organism. It plays a central role in tissue formation during embryonic development, organ formation, immune responses, and most importantly (as in this experiment) in wound healing. Wound healing assay is a standard in vitro technique to determine collective cell migration in two dimensions. In this assay, an insert is used to create a cell-free gap in confluent monolayer cells. The wound healing assay is initiated by removing the insert. The cell-free gap is then exposed to the cell culture medium to induce the cells to migrate into the gap until new cell-to-cell contacts are established.
The wound healing images were recorded at three different time intervals using microscope to assess the directional collective migration of the cells. The rate of wound healing was determined by measuring the change in the gap size of the cell-free area after treatment with various concentrations of complex 1 recorded over specific time-intervals (e.g., 0 hour, 6 hours, and 12 hours). The gap was measured for each frame in the wound healing and plotted as a function of time to determine the cell migration rate. The effect of varying concentration of complex 1 (1, […], 10, 30 μM) and 0.1% of DMSO (control cells) against HeLa cell migration rate was studied. […] Meanwhile, the cells treated with four different concentrations of complex 1 (1, 3, 10, 30 μM) migrated approximately 57%, 54%, 49%, and 28%, respectively. […] Further molecular studies are required to understand the mechanism behind the inhibition of cell migration.

[6] = test system: mice; experiment: Acute kidney toxicity study
Description: The mice were separated into three groups ((I), (II), and (III)) with four animals per each cage. Group (I) was served as normal control group, which received only vehicle (0.1 volume % DMSO). […] Six hours prior to the experiment, no food and water were given. […] On the day three, the animals were sacrificed by the overdose of xylazine and ketamine anesthesia. Blood samples were collected for Blood Urea Nitrogen (BUN) and serum creatinine (CRE2) measurements. All mice were allowed one week to acclimatize prior to the experiments (five animals per cage), under standard environmental conditions (12 h light-dark cycle). The animal studies were performed according to the king Saud University ethical committee.
Kidney biochemical markers, BUN and CRE2, were used for nephrotoxicity study.

[7] = equimolar single doses of 25 mg/kg, 72 hours

SMILES | IC50 ([1]; A549, 24 hours) [µM] | IC50 ([1]; A549, 72 hours) [µM] | IC50 ([2]; 24 hours) [µM] | IC50 ([2]; 72 hours) [µM] | Percent (%) release of LDH ([3]; A549, 0.9 μM) [%] | Percent (%) release of LDH ([3]; A549, 1.8 μM) [%] | Percent (%) release of LDH ([3]; A549, 3.6 μM) [%] | Percent (%) release of LDH ([4]; 0.9 μM) [%] | Percent (%) release of LDH ([4]; 1.8 μM) [%] | Percent (%) release of LDH ([4]; 3.6 μM) [%] | also measured
N.N.[Cl][Pt][Cl] [Cisplatin, reference compound] | > 30 | > 30 | > 30 | > 30 |  |  |  |  |  |  | 
C1=CC2C3C=CC(C3)C2C1.CN(C)C(=S)[S][Pt+].F[P-](F)(F)(F)(F)F (centres unmarked) [Complex 1] | 2.92 | 1.74 | 1.72 | 1.87 | 31.93 ± 0.01 | 43.33 ± 0.02 | 47.00 ± 0.01 | 60.16 ± 0.02 | 73.07 ± 0.03 | 95.57 ± 0.02 | cells migrated, % of the cell-free area (scratch closure) ([5]; 1 μM): approximately 57%; cells migrated, % of the cell-free area (scratch closure) ([5]; 3 μM): ~54%; cells migrated, % of the cell-free area (scratch closure) ([5]; 10 μM): ~49%; cells migrated, % of the cell-free area (scratch closure) ([5]; 30 μM): ~28%; effect on cell migration rate ([5]; 1-30 μM, 0-12 h): slowed down the cell migration rate in a concentration-dependent manner; Blood Urea Nitrogen (BUN) level in Plasma ([6]; 72 h after single dose, 25 mg/kg cisplatin or equimolar complex 1, CTR 6.7 ± 0.1): 6.06 ± 0.08; Creatinine (CRE2) level in Plasma ([6]; 72 h after single dose, 25 mg/kg cisplatin or equimolar complex 1, CTR 17.4 ± 0.58): 15.8 ± 0.45; BUN and CRE2 levels in response to the complex (in words) ([6]; 72 hours): control and normal; physical or abnormal changes [6, 7]: No physical or abnormal changes; survival of the treatment period [6, 7]: all animals survived; acute kidney toxicity compared to cisplatin ([6]; nephrotoxicity tests): less toxic compared to cisplatin
C1=CC2C3C=CC(C3)C2C1.CCN(CC)C(=S)[S][Pt+].F[P-](F)(F)(F)(F)F (centres unmarked) [Complex 2] | 7.61 | 3.37 | 6.1 | 3.52 | 32.18 ± 0.004 | 41.05 ± 0.01 | 44.85 ± 0.01 | 45.52 ± 0.001 | 68.19 ± 0.04 | 94.13 ± 0.05 | 
C1=CC2C3C=CC(C3)C2C1.F[P-](F)(F)(F)(F)F.S=C([S][Pt+])N(Cc1ccccc1)Cc1ccccc1 [Complex 3] | 3.31 | 7.83 | 3.18 | 11.4 |  |  |  |  |  |  | change in cytotoxicity with longer exposure time ([1]; A549, 24 vs 72 hours): a decrease in cytotoxicity was observed with longer exposure time; change in cytotoxicity with longer exposure time ([2]; 24 vs 72 hours): a decrease in cytotoxicity was observed with longer exposure time
